Laboratory results taken from ChEMBL document CHEMBL5727378, “Benzenesulfonamide derivatives as inverse agonists of retinoid-related orphan receptor gamma (RORγ(T))” (2019).

Target: T1, Nuclear receptor ROR-gamma (Homo sapiens, UniProt P51449)
T1 sequence (P51449 whole entry): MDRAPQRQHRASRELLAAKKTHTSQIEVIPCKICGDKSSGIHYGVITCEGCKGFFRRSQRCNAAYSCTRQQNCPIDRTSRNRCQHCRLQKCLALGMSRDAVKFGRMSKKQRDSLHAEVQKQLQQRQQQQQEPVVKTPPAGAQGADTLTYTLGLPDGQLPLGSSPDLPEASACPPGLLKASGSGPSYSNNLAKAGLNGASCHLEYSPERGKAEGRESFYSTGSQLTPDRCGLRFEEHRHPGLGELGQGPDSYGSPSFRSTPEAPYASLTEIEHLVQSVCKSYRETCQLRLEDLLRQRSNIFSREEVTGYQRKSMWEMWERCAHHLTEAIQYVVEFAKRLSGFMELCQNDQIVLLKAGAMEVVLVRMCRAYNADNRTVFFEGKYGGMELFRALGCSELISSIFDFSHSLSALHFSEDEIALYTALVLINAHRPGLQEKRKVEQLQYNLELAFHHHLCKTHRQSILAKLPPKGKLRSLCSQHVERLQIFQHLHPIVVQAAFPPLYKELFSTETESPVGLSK
Assay: GAL4-RORgamma Transactivation: The RORγ transactivation model was developed from the line HG5LN, which is a HeLa line that stably expresses a luciferase reporter gene controlled by a pentamer of the GAL4 recognition domain of yeast and of a β-globin promoter. The HG5LN line was stably transfected by the DNA-binding domain (DBD) of GAL4 fused to the ROR gamma ligand-binding domain (LBD). Molecules that inhibit the ROR gamma constitutive activity reduce the luciferase expression, thus leading to a reduction in the emitted luminescence.The cells are seeded in 384-well plates (5000 cells in 45 μL/well of culture medium containing 10% fetal calf serum) and incubated for 4 hours at 37° C., 5% CO2. 5 μL of the test molecules (compounds described in the tables described above) are then added to each well and the plates are incubated for 18 hours at a temperature of 37° C. under 5% of CO2. 20 μL of luciferase substrate (Promega) are added to each well and the luminescence emitted is read by a microplate reader.The luminescence units (“RLU”) are normalized by positive controls (“POS” containing a saturated concentration of benzenesulfonamide, N-(2,2,2-trifluoroethyl)-N-[4-[2,2,2-trifluoro-1-hydroxy-1-(trifluoromethyl)ethyl]phenyl]) and negative controls (“NEG” containing DMSO): % inhibition=((RLU−NEG)*100)/(POS−NEG). The IC50 values are calculated from a 4-parameter logistic model using the XLFit software (IDBS).

Compound | IC50 [nM]
CCc1ccc(N(CC(C)C)S(=O)(=O)c2ccc3c(c2)N(CC2CCOCC2)CCS3(=N)=O)cc1 (stereo not drawn) | > 1000
CCc1ccc(N(CC(C)C)S(=O)(=O)c2ccc(NC3CCNC(=O)C3)c(S(C)(=N)=O)c2)cc1 (stereo not drawn) | > 1000
CCc1ccc(N(CC(C)C)S(=O)(=O)c2ccc(OCC3CCSCC3)c(S(C)(=N)=O)c2)cc1 (stereo not drawn) | < 100
